According to patent US20240141356A1, “Driving Axon Regeneration by Activating STAT1 Signaling and cGAS-STING Pathway” (The Hong Kong University of Science and Technology, priority 2022, published 2024):

Assays:
[1] = test system: retinal ganglion cells (RGCs); assay: Optic nerve crush, number of regenerating axons (CTB labeling); type: in vivo, mouse
DRG neurons = assay: Adult DRG neuron primary culture, length of the longest axon (compound test); type: cell-based, mouse; settings: cGAMP 10 μM; for axon elongation / axon growth in DRG culture: WT DRG neurons, DMXAA 10 μM, C-176 1 μM, H-151 1 μM; for effect on the growth effect induced by cGAMP: DRG culture, DCPIB 100 nM, CBX 10 μM
Experimental: (§1) In some embodiments, in-vitro screening models of axon regeneration are based on DRG electroporation and replating culture. Adult DRGs were cultured and replated according to the protocol described previously (Weng et al., 2018). In certain embodiments, adult mice were euthanized, and L4-L6 DRGs were dissected from both sides. DRGs were dissociated in 0.5% collagenase for 1.5 hours. Then the medium containing collagenase was replaced by Neurobasal A, and DRGs were gently pipetted 20 times for dissociation. For electroporation, dissociated DRG neurons were transfected by Mouse Neuron Nucleofector Kit in Lonza Nucleofector system using program G103. 6 DRGs and 5 μg plasmid were used for each reaction. Neurobasal-A with 10% B27 supplement was used as the culture medium for DRG neurons.
For quantification of neurite lengths in DRG culture. Cells were fixed and stained with TurboGFP (phosphatase shRNA library screening) or Tuj 1. The lengths of the longest axons in each DRG neuron were quantified by the NeuronJ plugin in ImageJ. For phosphatase screening, 5-10 neurons were quantified for each shRNA. For the compound test, 10-20 cells from each mouse and 3 mice were quantified in each group.

embryonic DRG neurons = assay: Embryonic DRG culture in compartmented chamber, in-vitro axotomy; type: cell-based, mouse; settings: ADU-S100 10 μM added to the axonal or the soma compartment
Experimental: To culture embryonic DRG in the compartmented chamber, embryonic DRGs were dissected from E13.5 pregnant C57BL/6 mouse embryos in Leibovitz's L-15 medium on ice. Tissues were dissociated in TrypLE for 15 minutes at 37° C. Dissociated neurons were plated in the microfluidic chamber on cleaned glass coverslips pre-coated with poly-D-lysine and laminin in the density of 100000 cells per chamber with 5 μL culture medium supplemented with GlutaMAX (2 mM), B27 (20 ml/l), penicillin-Streptomycin, NGF ([…]) and 5-fluoro-2′-deoxyuridine (10 μM) into the somal compartment. After one hour, 200 μL medium was added into both the somal and axonal compartment. To perform in-vitro axotomy, axons in the axonal chamber were removed by a glass pipette connected to an aspirator. Then, a 150 μL medium was quickly added into the empty compartment. After 2 days in the […], cells were fixed by 4% PFA and then stained by Tuj 1 antibody. The lengths and/or number of longest axons in each chamber were quantified by ImageJ.

adult DRG neurons = assay: DRG replating assay, phosphatase inhibitor screening; type: cell-based, mouse; settings: replated adult DRG neurons, inhibitors 100 nM
Experimental: as §1
The culture was replated three days after electroporation. The DRG neurons in the primary culture were gently flushed by 20-30 pipetting to be resuspended in the culture medium. […] The lengths of the longest axons in each DRG neuron were quantified by the NeuronJ plugin in ImageJ. […]
For quantification of neurite lengths in DRG culture. […] The lengths of the longest axons in each DRG neuron were quantified by the NeuronJ plugin in ImageJ. For phosphatase screening, 5-10 neurons were quantified for each shRNA. For the compound test, 10-20 cells from each mouse and 3 mice were quantified in each group.

IFNγ = assay: Ex-vivo model of sciatic nerve injury, IFNγ immunostaining; set-up: species or system mouse; settings: injured sciatic nerve segments in DMEM, anisomycin 200 μg/ml, 3-hour incubation
Experimental: For the ex-vivo model of sciatic nerve injury, the nerves were crushed and then cut into about 3 mm to about 5 mm segments. The injured nerve segments were incubated in DMEM supplemented with about 10% FBS and about 1% penicillin/streptomycin. Translation was inhibited by 200 μg/ml anisomycin. After about a 3-hour incubation, nerve segments were fixed by 4% PFA for about 2 hours and then proceeded to the frozen section.
Mice were first perfused by PBS and then 4% PFA for 5 minutes for fixation. Respective tissues were dissected and then post-fixed in 4% PFA for two hours. Fixed tissues were incubated in 30% sucrose overnight and then embedded in an optimum cutting temperature (OCT) compound. Frozen sections were then permeabilized with 0.1% Triton X-100, blocked by 4% normal goat serum for 30 min, and incubated by respective primary antibodies overnight. After PBS washing three times, sections were incubated by secondary antibodies for two hours and washed three times again. Images were taken by Leica SP8 confocal microscope.

p-STAT1 = p-STAT1 in RGCs/retina after optic nerve injury (immunostaining, western blot); type: in vivo, mouse; settings: for p-STAT1 accumulation in the nuclei of RGCs: WT, IFNγ administration
p-STAT3 = p-STAT3 in RGCs after optic nerve injury (immunostaining); type: in vivo, mouse; settings: Ptpn2 KO group with IFNγ, 1 dpc
cGAS = cGAS expression in retina/RGCs after optic nerve injury (western blot, immunostaining); type: in vivo, mouse
[2] = test system: retinal ganglion cells (RGCs); settings: 2 WPI
[3] = Ptpn2 cKO plus IFNγ after optic nerve injury

Nc1nc2c(ncn2[C@@H]2O[C@@H]3COP(=O)(O)O[C@H]4[C@@H](O)[C@H](n5cnc6c(N)ncnc65)O[C@@H]4COP(=O)(O)O[C@@H]2[C@@H]3O)c(=O)[nH]1 [2′,3′-cGAMP, reference compound] was tested, and the “axon regeneration after optic nerve crush” value ([1]; mouse, in vivo) was “stimulated significant axon regeneration”, the cGAMP-induced regeneration ([1]; mouse, in vivo) was “suppressed” and the cGAMP-stimulated axon regeneration ([1]; mouse, in vivo) was “almost completely blocked”. For the same compound, the “growth effect of cGAMP on DRG culture” value (DRG neurons; Sting deletion (Sting KO mice)) was “completely abolished” and the “axon elongation / axon growth in DRG culture” value (DRG neurons) was “enhanced the axon elongation”.
In the case of Nc1ncnc2c1ncn2[C@@H]1O[C@@H]2COP(=O)([S-])O[C@@H]3[C@H](O)[C@@H](COP([O-])(=S)O[C@H]2[C@H]1O)O[C@H]3n1cnc2c(N)ncnc21.[Na+].[Na+] (stereo partly shown) [ADU-S100, reference compound], the “axon regeneration after optic nerve crush” value ([1]; mouse, in vivo) is reported as “regenerative effect in a dose-dependent manner” and the “axon elongation after in-vitro axotomy” value (embryonic DRG neurons) is reported as “enhanced axon elongation”.
With CC1(C)[C@@H](OC(=O)CCC(=O)O)CC[C@]2(C)[C@H]3C(=O)C=C4[C@@H]5C[C@@](C)(C(=O)O)CC[C@]5(C)CC[C@@]4(C)[C@]3(C)CC[C@@H]12 [CBX] the “effect on the growth effect induced by cGAMP” value (DRG neurons) was “inhibit the growth effect induced by cGAMP”.
With CCCCC1(C2CCCC2)Cc2cc(OCCCC(=O)O)c(Cl)c(Cl)c2C1=O (stereo not shown) [DCPIB] the “effect on the growth effect induced by cGAMP” value (DRG neurons) was “inhibit the growth effect induced by cGAMP”.
In the case of Cc1ccc2c(=O)c3cccc(CC(=O)O)c3oc2c1C [DMXAA, 5,6-Dimethylxanthenone-4-acetic acid], the “axon elongation / axon growth in DRG culture” value (DRG neurons) is reported as “enhanced the axon elongation”.
CCc1ccc(C(=O)NCCCCC(NC(=O)C(Cc2ccc(C(F)(F)P(=O)(O)O)cc2)NC(=O)C(Cc2ccccc2)NC(=O)COC2CC(C)CCC2C(C)C)C(N)=O)cc1 (stereo not shown) [PTPN2 inhibitor, reference compound] was tested, and the “in-vitro screening on inhibitors of mouse phosphatases (axon elongation)” value (adult DRG neurons) was “identified from the tyrosine phosphatase inhibitor screening” and the “axon regeneration after optic nerve crush” value ([1]; mouse, in vivo) was “elicited modest axon regeneration”.
For COc1ccc(C[C@H]2NC[C@H](O)[C@H]2OC(C)=O)cc1 [anisomycin], the “reduction of the IFNγ signal” value (IFNγ) was “over 50%”.
In the case of “IFNγ: type II interferon, recombinant protein (Prospec)”, the “optic nerve regeneration by IFNγ stimulation” value ([1]; Cgas or Sting KO mice with AAV-shRNA-Ptpn2, 0.1 μg/μL IFNγ, 2 weeks after injury) is reported as “almost completely blocked”, the “axons found at the optic chiasm, vs Pten/Socs3 mutant plus vehicle” value ([1]; Pten/Socs3/Ptpn2 triple KO with AAV-CNTF, IFNγ at time of injury, four weeks) is reported as “about 3 fold” and the “axon regeneration, exogenous ligand screen” value ([1]; Ptpn2 KO mice, protein injected into the eye at time of optic nerve crush, two weeks, IFNγ 0.1 μg/μL, leptin 2, insulin 2, EGF 1, bNGF 1 μg/μL) is reported as “significantly boosted axon regeneration”. For the same compound, the “axon regeneration, IFNγ plus Ptpn2 KO” value ([1]; Ptpn2 cKO mice, intravitreal IFNγ immediately after optic nerve injury (repeat with more controls)) was “elicited robust regeneration”, the “axon regrowth, IFNγ alone” value ([1]; WT mice, intravitreal IFNγ immediately after optic nerve injury) was “induced modest regrowth” and the “axon regeneration, triple KO plus IFNγ vs Pten/Socs3 mutant plus vehicle” value ([1]; mouse, in vivo) was “very significant increase in axon regeneration”. The “p-STAT1 in RGCs” value (p-STAT1; Ptpn2 KO group with IFNγ) was “enhanced up to 5 dpc”, the “p-STAT1 in retina lysates by western blotting” value (p-STAT1; [3]) was “most elevated among all groups” and the “p-STAT1 accumulation in the nuclei of RGCs” value (p-STAT1; 1 dpc) was “induced p-STAT1 accumulation”. For the same compound, the “p-STAT1 accumulation in the nuclei of RGCs” value (p-STAT1; 3 dpc) was “not at 3 dpc”, the “phosphorylated STAT3 (p-STAT3) in RGCs” value (p-STAT3) was “also activated” and the “cGAS in RGCs by immunostaining” value (cGAS; Ptpn2 cKO in addition to IFNγ, 2 days after injury) was “upregulated”. The “cGAS in retina by western blotting” value (cGAS; [3]) was “detectable only in mouse retinas with Ptpn2 cKO plus IFNγ”, the RGC survival rates ([2]; WT or Ptpn2 cKO with PBS or IFNγ) was “comparable among the four groups” and the RGC survival ([2]; WT, Cgas, Sting or Mavs KO mice with AAV-shRNA-Ptpn2 and IFNγ) was “comparable among all groups”.
